Source: patent publication EP4707280A1, “1,4-CINEOLE DERIVATIVE AND INTERMEDIATE THEREOF, HERBICIDE CONTAINING SAID DERIVATIVE AS ACTIVE INGREDIENT, METHOD FOR USING HERBICIDE, AND METHOD FOR PREPARING AGROCHEMICAL COMPOSITION” (HOKKO CHEMICAL INDUSTRY CO., LTD., priority 2023, dated 2024)

Experiments:
Assay type in all cases: in vivo
[1] = system: Echinochloa crus-galli var. formosensis; assay: Test Example 1: herbicidal effect test by soil application in paddy rice; conditions: 120 g active ingredient per 10 ares, applied immediately after sowing, flooded pots, 14 days after application; for pest or weed control at 1200 g/ha: Echinochloa crus-galli, soil, 336 h, read-out: weed inhibition rate
Procedure, shortened: (§1)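 Paddy soil in Wagner pots (1/10,000 acre), fertilized and puddled; 30 seeds per species sown at 0–1 cm, flooded to ~3 cm, greenhouse. Water-diluted emulsifiable concentrate dropped onto flooded pots right after sowing at 120 g active ingredient per 10 ares.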

Scirpus juncoides [2] = assay: as above; conditions: 120 g active ingredient per 10 ares, applied immediately after sowing, flooded pots, 14 days after application; for pest or weed control at 1200 g/ha: Schoenoplectiella juncoides, soil, 336 h, read-out: weed inhibition rate
Procedure, shortened: as §1

[3] = system: Echinochloa crus-galli var. formosensis; assay: Test Example 2: herbicidal effect test by application during growth period of paddy rice; conditions: 120 g per 10 ares, applied seven days after sowing, flooded pots, 14 days after application; for inhibition at 1200 g/ha: Echinochloa crus-galli, read-out: weed inhibition rate
Procedure, shortened: (§2)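 Paddy soil in flooded pots (water depth about 3 cm) was sown with weed seeds and kept in a glass greenhouse. Seven days after sowing, a diluted emulsifiable concentrate was applied by dropper at 120 g active ingredient per 10 ares. Weed inhibition was evaluated 14 days after application, in duplicate.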

Scirpus juncoides [4] = assay: as above; conditions: 120 g per 10 ares, applied seven days after sowing, flooded pots, 14 days after application; for inhibition at 1200 g/ha: Schoenoplectiella juncoides, read-out: weed inhibition rate
Procedure, shortened: as §2

Digitaria ciliaris [5] = assay: Test Example 3: herbicidal effect test by soil application in upland field; conditions: 120 g per 10 ares, sprayed one day after sowing, 14 days after application; for inhibition at 1200 g/ha: Digitaria ciliaris, read-out: weed inhibition rate
Procedure, shortened: (§3)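 Pre-emergence test: seeds mixed into top 1 cm of alluvial loam upland soil in pots; emulsifiable concentrate diluted in water sprayed on soil one day after sowing at 100 L/10 a, 120 g a.i./10 a. Weed inhibition rate (%) scored at 14 days, in duplicate.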

Echinochloa crus-galli [6] = assay: as above; conditions: 120 g per 10 ares, sprayed one day after sowing, 14 days after application; for inhibition at 1200 g/ha: Echinochloa crus-galli, read-out: weed inhibition rate
Procedure, shortened: as §3

Digitaria ciliaris [7] = assay: Test Example 4: herbicidal effect test by stem and leaf treatment in upland field; conditions: 120 g per 10 ares, sprayed seven days after sowing, upland soil, 14 days after application; for inhibition at 1200 g/ha: Digitaria ciliaris, read-out: weed inhibition rate
Echinochloa crus-galli [8] = assay: as above; conditions: 120 g per 10 ares, sprayed seven days after sowing, upland soil, 14 days after application; for inhibition at 1200 g/ha: Echinochloa crus-galli, read-out: weed inhibition rate
[9] = system: Echinochloa crus-galli var. formosensis; assay: Test Example 5: herbicidal effect test by soil application in paddy rice (low dose); conditions: 7.5 g per 10 ares, applied immediately after sowing, flooded pots, 14 days after application; for inhibition at 75 g/ha: Echinochloa crus-galli, soil, 336 h, read-out: weed inhibition rate
Procedure, shortened: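 Paddy-soil pots, weeds sown 0–1 cm deep and flooded to about 3 cm in a greenhouse. Emulsifiable concentrate diluted in water and dropped in right after sowing at 7.5 g active ingredient per 10 ares. Duplicates; effect scored 14 days after application.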

[10] = system: Echinochloa crus-galli var. formosensis; assay: Test Example 6: herbicidal effect test by application during growth period of paddy rice (low dose); conditions: 7.5 g per 10 ares, applied seven days after sowing, flooded pots, 14 days after application; for inhibition at 75 g/ha: Echinochloa crus-galli, read-out: weed inhibition rate
Procedure, shortened: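 Paddy-soil pots, flooded ~3 cm after sowing weed seeds at 0-1 cm depth, greenhouse-grown. Seven days after sowing, diluted emulsifiable concentrate applied by dropper at 7.5 g active ingredient per 10 ares. Weed inhibition rate (%) scored 14 days after application, in duplicate.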

Digitaria ciliaris [11] = assay: Test Example 7: herbicidal effect test by soil application in upland field (low dose); conditions: 7.5 g per 10 ares, sprayed one day after sowing, 14 days after application; for inhibition at 75 g/ha: Digitaria ciliaris, read-out: weed inhibition rate
Experimental: (§4) The present test was conducted in duplicate for each chemical concentration group, and the weed inhibition rate (%) was determined 14 days after chemical application using the following formula (Math. 1). [formula]
(§5) Pots with an area of 36 cm^2 were filled with upland soil (alluvial loam), twenty seeds each of weeds of Digitaria ciliaris, and Echinochloa crus-galli were uniformly mixed with the top 1 cm layer of soil and the surface was lightly pressed down. One day after sowing, an emulsifiable concentrate prepared according to Formulation Example 5 using the compound shown below was diluted with water, and the diluted solution was sprayed onto the soil surface at a rate of 100 liters per 10 ares. The amount of the active ingredient to be applied was equivalent to 7.5 g per 10 ares. Fourteen days after chemical application, the herbicidal effect was evaluated according to the same criteria as in Test Example 1.

Echinochloa crus-galli [12] = assay: as above; conditions: 7.5 g per 10 ares, sprayed one day after sowing, 14 days after application; for inhibition at 75 g/ha: Echinochloa crus-galli, read-out: weed inhibition rate
Experimental: as §4, §5

Digitaria ciliaris [13] = assay: Test Example 8: herbicidal effect test by stem and leaf treatment in upland field (low dose); conditions: 7.5 g per 10 ares, sprayed seven days after sowing, upland soil, 14 days after application; for inhibition at 75 g/ha: Digitaria ciliaris, read-out: weed inhibition rate
Echinochloa crus-galli [14] = assay: as above; conditions: 7.5 g per 10 ares, sprayed seven days after sowing, upland soil, 14 days after application; for inhibition at 75 g/ha: Echinochloa crus-galli, read-out: weed inhibition rate

CO[C@H]1C[C@]2(C)O[C@@]1(C(C)C)CC2OCC=C(C)C (mixture of isomers) [1-799, (1R,2S,4S,SR)-1-isopropyl-2-methoxy-4-methyl-5-(3-methylbut-2-enoxy)-7-oxabicyclo[2.2.1]heptane]
≥ 80%: pest or weed control at 1200 g/ha [1] | pest or weed control at 1200 g/ha (Scirpus juncoides [2]) | inhibition at 1200 g/ha [3] | inhibition at 1200 g/ha (Scirpus juncoides [4]) | inhibition at 1200 g/ha (Digitaria ciliaris [5]) | inhibition at 1200 g/ha (Echinochloa crus-galli [6]) | inhibition at 1200 g/ha (Digitaria ciliaris [7]) | inhibition at 1200 g/ha (Echinochloa crus-galli [8]) | inhibition at 75 g/ha [9] | inhibition at 75 g/ha [10] | inhibition at 75 g/ha (Digitaria ciliaris [11]) | inhibition at 75 g/ha (Echinochloa crus-galli [12]) | inhibition at 75 g/ha (Digitaria ciliaris [13]) | inhibition at 75 g/ha (Echinochloa crus-galli [14])

CC#CCOC1C[C@]2(C(C)C)O[C@@]1(C)C[C@@H]2OC (mixture of isomers) [1-801, (1R,2S,4S,SR)-5-but-2-ynoxy-1-isopropyl-2-methoxy-4-methyl-7-oxabicyclo[2.2.1]heptane]
≥ 80%: pest or weed control at 1200 g/ha [1] | pest or weed control at 1200 g/ha (Scirpus juncoides [2]) | inhibition at 1200 g/ha [3] | inhibition at 1200 g/ha (Scirpus juncoides [4]) | inhibition at 1200 g/ha (Digitaria ciliaris [5]) | inhibition at 1200 g/ha (Echinochloa crus-galli [6]) | inhibition at 1200 g/ha (Digitaria ciliaris [7]) | inhibition at 1200 g/ha (Echinochloa crus-galli [8]) | inhibition at 75 g/ha [9] | inhibition at 75 g/ha [10] | inhibition at 75 g/ha (Digitaria ciliaris [11]) | inhibition at 75 g/ha (Echinochloa crus-galli [12]) | inhibition at 75 g/ha (Digitaria ciliaris [13]) | inhibition at 75 g/ha (Echinochloa crus-galli [14])

CC(C)[C@]12C[C@@H](OCc3ccccc3F)[C@](C)(C[C@@H]1C)O2 (racemic) [1-1555, (1SR,2RS,4RS,5SR)-2-[(2-fluorophenyl)methoxy]-1,5-dimethyl-4-isopropyl-7-oxabicyclo[2.2.1]heptane]
≥ 80%: pest or weed control at 1200 g/ha [1] | pest or weed control at 1200 g/ha (Scirpus juncoides [2]) | inhibition at 1200 g/ha [3] | inhibition at 1200 g/ha (Scirpus juncoides [4]) | inhibition at 1200 g/ha (Digitaria ciliaris [5]) | inhibition at 1200 g/ha (Echinochloa crus-galli [6]) | inhibition at 1200 g/ha (Digitaria ciliaris [7]) | inhibition at 1200 g/ha (Echinochloa crus-galli [8]) | inhibition at 75 g/ha [9] | inhibition at 75 g/ha [10] | inhibition at 75 g/ha (Digitaria ciliaris [11]) | inhibition at 75 g/ha (Echinochloa crus-galli [12]) | inhibition at 75 g/ha (Digitaria ciliaris [13]) | inhibition at 75 g/ha (Echinochloa crus-galli [14])

CC(C)[C@]12C[C@@H](OCc3ccccc3F)[C@](C)(C=C1OS(=O)(=O)C(F)(F)F)O2 (racemic) [3-680]
≥ 80%: weed inhibition rate [1] | weed inhibition rate (Scirpus juncoides [2]) | weed inhibition rate [3] | weed inhibition rate (Scirpus juncoides [4]) | weed inhibition rate (Digitaria ciliaris [5]) | weed inhibition rate (Echinochloa crus-galli [6]) | weed inhibition rate (Digitaria ciliaris [7]) | weed inhibition rate (Echinochloa crus-galli [8]) | weed inhibition rate [9] | weed inhibition rate [10] | weed inhibition rate (Digitaria ciliaris [11]) | weed inhibition rate (Echinochloa crus-galli [12]) | weed inhibition rate (Digitaria ciliaris [13]) | weed inhibition rate (Echinochloa crus-galli [14])

Cc1ccccc1CO[C@@H]1C[C@]2(C(C)C)O[C@@]1(C)C[C@@H]2Cl [1-9, (1R,2S,4S,5R)-2-chloro-1-isopropyl-4-methyl-5-(o-tolylmethoxy)-7-oxabicyclo[2.2.1]heptane]
≥ 80%: pest or weed control at 1200 g/ha [1] | pest or weed control at 1200 g/ha (Scirpus juncoides [2]) | inhibition at 1200 g/ha [3] | inhibition at 1200 g/ha (Scirpus juncoides [4]) | inhibition at 1200 g/ha (Digitaria ciliaris [5]) | inhibition at 1200 g/ha (Echinochloa crus-galli [6]) | inhibition at 1200 g/ha (Digitaria ciliaris [7]) | inhibition at 1200 g/ha (Echinochloa crus-galli [8]) | inhibition at 75 g/ha [9] | inhibition at 75 g/ha [10] | inhibition at 75 g/ha (Digitaria ciliaris [11]) | inhibition at 75 g/ha (Echinochloa crus-galli [12]) | inhibition at 75 g/ha (Digitaria ciliaris [13]) | inhibition at 75 g/ha (Echinochloa crus-galli [14])

Cc1cccc(C)c1CO[C@@H]1C[C@]2(C(C)C)O[C@@]1(C)C[C@@H]2Cl [1-10, (1R,2S,4S,5R)-2-chloro-5-[(2,6-dimethylphenyl)methoxy]-1-isopropyl-4-methyl-7-oxabicyclo[2.2.1]heptane]
≥ 80%: pest or weed control at 1200 g/ha [1] | pest or weed control at 1200 g/ha (Scirpus juncoides [2]) | inhibition at 1200 g/ha [3] | inhibition at 1200 g/ha (Scirpus juncoides [4]) | inhibition at 1200 g/ha (Digitaria ciliaris [5]) | inhibition at 1200 g/ha (Echinochloa crus-galli [6]) | inhibition at 1200 g/ha (Digitaria ciliaris [7]) | inhibition at 1200 g/ha (Echinochloa crus-galli [8]) | inhibition at 75 g/ha [9] | inhibition at 75 g/ha [10] | inhibition at 75 g/ha (Digitaria ciliaris [11]) | inhibition at 75 g/ha (Echinochloa crus-galli [12]) | inhibition at 75 g/ha (Digitaria ciliaris [13]) | inhibition at 75 g/ha (Echinochloa crus-galli [14])

COc1ccccc1CO[C@@H]1C[C@]2(C(C)C)O[C@@]1(C)C[C@@H]2Cl [1-11, (1R,2S,4S,5R)-2-chloro-1-isopropyl-5-[(2-methoxyphenyl)methoxy]-4-methyl-7-oxabicyclo[2.2.1]heptane]
≥ 80%: pest or weed control at 1200 g/ha [1] | pest or weed control at 1200 g/ha (Scirpus juncoides [2]) | inhibition at 1200 g/ha [3] | inhibition at 1200 g/ha (Scirpus juncoides [4]) | inhibition at 1200 g/ha (Digitaria ciliaris [5]) | inhibition at 1200 g/ha (Echinochloa crus-galli [6]) | inhibition at 1200 g/ha (Digitaria ciliaris [7]) | inhibition at 1200 g/ha (Echinochloa crus-galli [8]) | inhibition at 75 g/ha [9] | inhibition at 75 g/ha [10] | inhibition at 75 g/ha (Digitaria ciliaris [11]) | inhibition at 75 g/ha (Echinochloa crus-galli [12]) | inhibition at 75 g/ha (Digitaria ciliaris [13]) | inhibition at 75 g/ha (Echinochloa crus-galli [14])
